Assay results taken from paper PMC10580383, “Development of Melanocortin 4 Receptor Agonists by Exploiting Animal-Derived Macrocyclic, Disulfide-Rich Peptide Scaffolds” (ACS Pharmacology & Translational Science, 2023).
Read-outs that look alike come from different tables or passages of the source. Where a SMILES comes first, the peptide text is derived from it. Bridges are numbered along the chain shown (N, C = ends). Where no end group is shown, it is not given here. [ ]: non-standard residue; d: D form. pGlu = O=C1CC[C@@H](C(=O)O)N1

How the values were obtained:
[1] = biological target: T1, mouse melanocortin 4 receptor (MC4R) (Mus musculus, UniProt P56450); experiment: cAMP second messenger quantification assay (Cisbio HTRF cAMP Gs kit); format: cell-based
T1 construct: expressed in transfected cells; host or cells: HEK293 / HEK293T, transient transfection
Procedure: Figure 3 Functional cAMP assay of synthesized peptide analogues targeting MC4R. The accumulation of adenylyl cyclase-catalyzed cAMP of (A) tachylplesin-1-like peptides (Ta1LPs, green), (B) protegrin-4-like peptides ([…], pink), (C) arenicin-3-like peptides (Ar3LPs, orange), and (D) gomesin-like peptides (GoLPs, blue) was measured in HEK293 cells transiently expressing mouse melanocortin 4 receptor (MC4R). […] Data are from three independent experiments and are shown as mean ± SEM.
Assays were performed on cells transiently expressing mouse MC4R-EGFP. BamHI and SacI restriction sites were used to clone mouse MC4R N-terminally into a pEGFP-N1 vector. Peptide ligands were assayed for […] in a 384-well format and triplicate according to the Cisbio protocol. Briefly, 5 μL containing 10,000 cells per well was incubated with 5 μL of peptide solutions prepared 2× in 1× stimulation buffer. Following an incubation of peptide ligands at 37 °C for 30 min, d2-labeled cAMP and cryptate-labeled antibody (5 μL of each) were added to the mixture and further incubated for at least 1 h at room temperature. Subsequently, cAMP levels were quantified on a Flexstation 3 (Molecular Devices, San Jose, USA) using homogeneous time-resolved fluorescence resonance energy transfer and the ratio 665/620 nm. Samples were measured in technical triplicates.
Data analysis was performed with GraphPad Prism (GraphPad Software, San Diego). The potency (EC50) and maximum efficacy (Emax) values of peptide ligands were derived from functional data fitted to three- or four-parameter nonlinear regression curves constrained to a bottom of zero.

[2] = biological target: mouse melanocortin 4 receptor fused to EGFP (mouse) (UniProt P56450)
[3] = HEK293, read-out: efficacy cAMP Emax ± SD

T1 sequence (P56450 whole entry): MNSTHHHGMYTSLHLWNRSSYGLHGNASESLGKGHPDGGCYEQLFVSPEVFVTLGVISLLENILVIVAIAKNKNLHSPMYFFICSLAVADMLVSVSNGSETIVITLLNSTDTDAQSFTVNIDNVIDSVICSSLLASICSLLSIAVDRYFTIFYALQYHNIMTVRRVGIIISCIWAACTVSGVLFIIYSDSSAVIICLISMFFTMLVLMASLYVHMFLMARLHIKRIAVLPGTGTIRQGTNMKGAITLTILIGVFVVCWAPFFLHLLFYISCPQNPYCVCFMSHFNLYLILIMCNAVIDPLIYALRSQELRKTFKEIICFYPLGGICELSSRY
Sequence of mouse melanocortin 4 receptor fused to EGFP (mouse) (P56450 whole entry, the tested form may be a part): as the sequence (P56450 whole entry) above

| cAMP accumulation (Cisbio HTRF) in HEK293 cells transiently expressing mouse MC4R-EGFP: EC50 [2] | cAMP accumulation (Cisbio HTRF) in HEK293 cells transiently expressing mouse MC4R-EGFP: Emax (normalised to NDP-α-MSH) [2] | Molecule | EC50 [1] | Emax [1, 3] | Emax ([1]; HEK293; read-out: efficacy cAMP Emax ± SD) |
| --- | --- | --- | --- | --- | --- |
|  |  | CC(C)[C@@H]1NC(=O)[C@H](CCCNC(=N)N)NC(=O)[C@H](Cc2ccccc2)NC(=O)[C@@H](NC(=O)[C@H](Cc2c[nH]c3ccccc23)NC(=O)[C@@H](N)CCCCN)CSSC[C@@H](C(=O)N[C@@H](CCCNC(=N)N)C(N)=O)NC(=O)[C@H](CCCNC(=N)N)NC(=O)[C@H](CCCNC(=N)N)NC(=O)[C@H](Cc2ccc(O)cc2)NC(=O)[C@@H]2CSSC[C@H](NC1=O)C(=O)N1CCC[C@H]1C(=O)N[C@@H](Cc1c[nH]cn1)C(=O)N[C@H](Cc1ccccc1)C(=O)N[C@@H](Cc1c[nH]cn1)C(=O)N[C@@H](Cc1c[nH]c3ccccc13)C(=O)N2 [Ta1LP1] (H-KWCFRVCPH[dF]HWCYRRCR-NH2; disulfide 3-17, 7-13) | 20 nM | 97 ± 4% |  |
|  |  | CC(C)[C@@H]1NC(=O)[C@H](CCCNC(=N)N)NC(=O)[C@H](Cc2c[nH]c3ccccc23)NC(=O)[C@H](Cc2c[nH]cn2)NC(=O)[C@@H](Cc2ccccc2)NC(=O)[C@H](Cc2c[nH]cn2)NC(=O)[C@@H]2CCCN2C(=O)[C@H](C(C)C)NC(=O)[C@@H]2CSSC[C@H](NC1=O)C(=O)N[C@@H](Cc1ccc(O)cc1)C(=O)N[C@@H](CCCNC(=N)N)C(=O)N[C@@H](CCCNC(=N)N)C(=O)N[C@H](C(=O)N[C@@H](CC(N)=O)C(N)=O)CSSC[C@H](NC(=O)[C@H](Cc1ccccc1)NC(=O)CN)C(=O)N[C@@H](Cc1c[nH]c3ccccc13)C(=O)N[C@@H](Cc1ccc(O)cc1)C(=O)N[C@@H](C(C)C)C(=O)N2 [Ar3LP3] (H-GFCWYVCVPH[dF]HWRVCYRRCN-NH2; disulfide 3-20, 7-16) | 1000 nM |  | 117 ± 18% |
|  |  | CC(C)[C@@H]1NC(=O)[C@H](CCCNC(=N)N)NC(=O)[C@H](Cc2ccccc2)NC(=O)[C@@H](NC(=O)[C@H](Cc2c[nH]c3ccccc23)NC(=O)[C@@H](N)CCCCN)CSSC[C@@H](C(=O)N[C@@H](CCCNC(=N)N)C(N)=O)NC(=O)[C@H](CCCNC(=N)N)NC(=O)[C@H](CCCNC(=N)N)NC(=O)[C@H](Cc2ccc(O)cc2)NC(=O)[C@@H]2CSSC[C@H](NC1=O)C(=O)N[C@@H](Cc1c[nH]cn1)C(=O)N[C@H](Cc1ccccc1)C(=O)N[C@@H](Cc1c[nH]cn1)C(=O)N[C@@H](Cc1c[nH]c3ccccc13)C(=O)N2 [Ta1LP2] (H-KWCFRVCH[dF]HWCYRRCR-NH2; disulfide 3-16, 7-12) | 50.1 nM | 97 ± 6% |  |
|  |  | CC(C)C[C@H](NC(=O)[C@H](CCCNC(=N)N)NC(=O)CNC(=O)CNC(=O)[C@@H](N)CCCNC(=N)N)C(=O)N[C@H]1CSSC[C@@H](C(=O)N[C@H](C(=O)NCC(=O)N[C@@H](CCCNC(=N)N)C(N)=O)C(C)C)NC(=O)[C@H](Cc2ccccc2)NC(=O)[C@@H]2CSSC[C@H](NC(=O)[C@H](Cc3ccc(O)cc3)NC1=O)C(=O)N[C@@H](Cc1c[nH]cn1)C(=O)N[C@H](Cc1ccccc1)C(=O)N[C@@H](Cc1c[nH]cn1)C(=O)N[C@@H](Cc1c[nH]c3ccccc13)C(=O)N2 [Pr4LP2] (H-RGGRLCYCH[dF]HWCFCVGR-NH2; disulfide 6-15, 8-13) | 158 nM | 97 ± 4% |  |
|  |  | CC(C)[C@@H]1NC(=O)[C@H](CCCNC(=N)N)NC(=O)[C@H](Cc2ccccc2)NC(=O)[C@@H](NC(=O)[C@H](Cc2c[nH]c3ccccc23)NC(=O)[C@@H](N)CCCCN)CSSC[C@@H](C(=O)N[C@@H](CCCNC(=N)N)C(N)=O)NC(=O)[C@H](CCCNC(=N)N)NC(=O)[C@H](CCCNC(=N)N)NC(=O)[C@H](Cc2ccc(O)cc2)NC(=O)[C@@H]2CSSC[C@H](NC1=O)C(=O)N[C@@H](Cc1c[nH]cn1)C(=O)N[C@H](Cc1ccccc1)C(=O)N[C@@H](CCCNC(=N)N)C(=O)N[C@@H](Cc1c[nH]c3ccccc13)C(=O)N2 [Ta1LP3] (H-KWCFRVCH[dF]RWCYRRCR-NH2; disulfide 3-16, 7-12) | 16.7 nM | 98 ± 4% |  |
|  |  | CC(C)C[C@@H]1NC(=O)[C@H](CCCNC(=N)N)NC(=O)[C@H](CCCNC(=N)N)NC(=O)[C@@H](NC(=O)[C@@H]2CCC(=O)N2)CSSC[C@@H](C(=O)N[C@@H](CCCNC(=N)N)C(=O)NCC(=O)N[C@@H](CCCNC(=N)N)C(N)=O)NC(=O)[C@H](Cc2ccc(O)cc2)NC(=O)[C@H]([C@@H](C)O)NC(=O)[C@H](C(C)C)NC(=O)[C@@H]2CSSC[C@H](NC1=O)C(=O)N[C@@H](Cc1c[nH]cn1)C(=O)N[C@H](Cc1ccccc1)C(=O)N[C@@H](CCCNC(=N)N)C(=O)N[C@@H](Cc1c[nH]c3ccccc13)C(=O)N2 [GoLP3] ([pGlu]CRRLCH[dF]RWCVTYCRGR-NH2; disulfide 2-15, 6-11) | 39.8 nM | 104 ± 5% |  |
|  |  | CC(C)C[C@H](NC(=O)[C@H](CCCNC(=N)N)NC(=O)CNC(=O)CNC(=O)[C@@H](N)CCCNC(=N)N)C(=O)N[C@H]1CSSC[C@@H](C(=O)N[C@H](C(=O)NCC(=O)N[C@@H](CCCNC(=N)N)C(N)=O)C(C)C)NC(=O)[C@H](Cc2ccccc2)NC(=O)[C@@H]2CSSC[C@H](NC(=O)[C@H](Cc3ccc(O)cc3)NC1=O)C(=O)N[C@@H](Cc1c[nH]cn1)C(=O)N[C@H](Cc1ccccc1)C(=O)N[C@@H](CCCNC(=N)N)C(=O)N[C@@H](Cc1c[nH]c3ccccc13)C(=O)N2 [Pr4LP3] (H-RGGRLCYCH[dF]RWCFCVGR-NH2; disulfide 6-15, 8-13) | 200 nM | 99 ± 6% |  |
| 0.04 nM | 100% | NDP-α-MSH (peptide) |  |  |  |
| 20 nM | 97% | KWCFRVCPH[dF]HWCYRRCR-NH2 (disulfide 7-13, 3-17; N-terminus assumed; SMILES CC(C)[C@@H]1NC(=O)[C@H](CCCNC(=N)N)NC(=O)[C@H](Cc2ccccc2)NC(=O)[C@@H](NC(=O)[C@H](Cc2c[nH]c3ccccc23)NC(=O)[C@@H](N)CCCCN)CSSC[C@@H](C(=O)N[C@@H](CCCNC(=N)N)C(N)=O)NC(=O)[C@H](CCCNC(=N)N)NC(=O)[C@H](CCCNC(=N)N)NC(=O)[C@H](Cc2ccc(O)cc2)NC(=O)[C@@H]2CSSC[C@H](NC1=O)C(=O)N1CCC[C@H]1C(=O)N[C@@H](Cc1c[nH]cn1)C(=O)N[C@H](Cc1ccccc1)C(=O)N[C@@H](Cc1c[nH]cn1)C(=O)N[C@@H](Cc1c[nH]c3ccccc13)C(=O)N2) [tachyplesin-1-like peptide 1] |  |  |  |
| 1000 nM | 117% | GFCWYVCVPH[dF]HWRVCYRRCN-NH2 (disulfide 7-16, 3-20; N-terminus assumed; SMILES CC(C)[C@@H]1NC(=O)[C@H](CCCNC(=N)N)NC(=O)[C@H](Cc2c[nH]c3ccccc23)NC(=O)[C@H](Cc2c[nH]cn2)NC(=O)[C@@H](Cc2ccccc2)NC(=O)[C@H](Cc2c[nH]cn2)NC(=O)[C@@H]2CCCN2C(=O)[C@H](C(C)C)NC(=O)[C@@H]2CSSC[C@H](NC1=O)C(=O)N[C@@H](Cc1ccc(O)cc1)C(=O)N[C@@H](CCCNC(=N)N)C(=O)N[C@@H](CCCNC(=N)N)C(=O)N[C@H](C(=O)N[C@@H](CC(N)=O)C(N)=O)CSSC[C@H](NC(=O)[C@H](Cc1ccccc1)NC(=O)CN)C(=O)N[C@@H](Cc1c[nH]c3ccccc13)C(=O)N[C@@H](Cc1ccc(O)cc1)C(=O)N[C@@H](C(C)C)C(=O)N2) [arenicin-3-like peptide 3] |  |  |  |
